Assay results: PubChem BioAssay AID248 (DTP/NCI, 2004)
Inconclusive results and toxic doses are left out. No stated cut-off is given here; in the data, active means T/C of 150% or more; inactive means T/C below 125%.

Tested on: L1210 leukemia ip in BDF1 mice, survival T/C
Experiment: NCI In Vivo Anticancer Drug Screen. Data for tumor model L1210 Leukemia (intraperitoneal) in B6D2F1 (BDF1) mice
Settings: endpoint: mean survival time, higher = longer survival
Summary of the method: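 Each compound was tested against a transplantable tumor grown in mice. The endpoint was survival, with treated animals benchmarked against vehicle controls as a simple ratio.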

[1] = dose: 100.0 mg/kg/injection, schedule: Q01DX009 (ip), vehicle: saline
[2] = dose: 200.0 mg/kg/injection, schedule: Q01DX009 (ip), vehicle: saline
[3] = dose: 400.0 mg/kg/injection, schedule: Q01DX009 (ip), vehicle: saline

Measured: T/C

CCOP(=O)(OCC)C(C)OC (stereo not given)
inactive: [1] 95 % of control | [2] 93 % of control | [3] 104 % of control

CC(C)C(Br)C(=O)NCC(=O)O (stereo not given)
inactive: dose: 100.0 mg/kg/injection, schedule: Q04DX003 (ip), vehicle: saline with Tween-80 102 % of control | dose: 200.0 mg/kg/injection, schedule: Q04DX003 (ip), vehicle: saline with Tween-80 98 % of control | dose: 400.0 mg/kg/injection, schedule: Q04DX003 (ip), vehicle: saline with Tween-80 98 % of control

Cc1ccccc1S(=O)(=O)CC(Cl)c1ccccc1 (stereo not given)
inactive: dose: 100.0 mg/kg/injection, schedule: Q01DX001 (ip), vehicle: saline 102 % of control | [1] 93 % of control | dose: 200.0 mg/kg/injection, schedule: Q01DX001 (ip), vehicle: saline 102 % of control | [2] 91 % of control | dose: 400.0 mg/kg/injection, schedule: Q01DX001 (ip), vehicle: saline 107 % of control | [3] 91 % of control

CC1CN=C(Cc2ccc(NC(=O)c3ccc(C(=O)Nc4ccc(CC5=NCC(C)N5)cc4)cc3)cc2)N1 (stereo not given)
inactive: dose: 3.75 mg/kg/injection, schedule: Q01DX Z (ip), vehicle: water 91 % of control | dose: 7.5 mg/kg/injection, schedule: Q01DX Z (ip), vehicle: water 101 % of control

COC(=O)c1ccccc1NC1=NCCO1
inactive: dose: 50.0 mg/kg/injection, schedule: Q04DX002 (ip), vehicle: saline with Tween-80 98 % of control | dose: 100.0 mg/kg/injection, schedule: Q04DX002 (ip), vehicle: saline with Tween-80 104 % of control | dose: 200.0 mg/kg/injection, schedule: Q04DX002 (ip), vehicle: saline with Tween-80 91 % of control | dose: 400.0 mg/kg/injection, schedule: Q04DX002 (ip), vehicle: saline with Tween-80 88 % of control

CC(C)(C)c1ccc(P(=O)(O)C(C)(C)C)cc1
inactive: dose: 75.0 mg/kg/injection, schedule: Q01DX001 (ip), vehicle: saline 96 % of control | dose: 150.0 mg/kg/injection, schedule: Q01DX001 (ip), vehicle: saline 102 % of control
